Test results taken from PMC12516686, “Design of 2‑Aminobenzothiazole Derivatives Targeting Trypanosomatid PTR1 by a Multidisciplinary Fragment Hybridization Approach” (Journal of Medicinal Chemistry, 2025).
Like-named read-outs stand apart in the source and are kept apart here.

Legend:
[1] = system: L. infantum intracellular amastigotes; assay: Activity against L. infantum intracellular amastigotes (luciferase); type: cell-based, Leishmania infantum; conditions: for inhibition at 10 µM: Leishmania infantum, read-out: L. infantum % cell growth inhibition
Procedure: Luciferase-expressing L. infantum (MHOM/MA/67/ITMAP-263) axenic amastigotes were cultured in MAA/20 medium at 37 °C with 5% CO2. The parasites were maintained in 5 mL T25 ventilated flasks and subcultured every 7 days at a concentration of 1 × 10^6 cells/mL.
The activity against Leishmania infantum intracellular amastigotes was evaluated following the method described with modifications. THP-1 cells were differentiated into macrophages with PMA as described above. The cells were then infected with L. infantum axenic amastigotes expressing episomal luciferase at a macrophage-to-amastigote ratio of 1:10 for 4 h at 37 °C and 5% CO2. Noninternalized parasites were washed away, and compounds were added at various concentrations to a final volume of 100 μL. A dose–response curve for miltefosine was included in all assays as a quality control. Each condition was tested in quadruplicate. After 72 h of incubation, the medium was replaced with 100 μL of PBS, and 25 μL of Glo-lysis buffer from the Steady-Glo Luciferase Assay System (Promega, Madison, WI, USA) was added. The plates were agitated at 100 rpm for 10 min at room temperature. Subsequently, 30 μL of the Steady-Glo reagent (Promega, Madison, WI, USA) was added and incubated for 15 min in the dark under the same conditions. A total of 140 μL from each well was transferred to white-bottom 96-well plates, and luminescence intensity was measured using a Synergy 2 multimode reader (Biotek, Winooski, VT, USA). The antileishmanial effect was evaluated by comparison of the nontreated infected cells. The IC50 was determined (for miltefosine) through nonlinear regression analysis using GraphPad Prism version 8.1.1 for Windows (GraphPad Software, San Diego, CA, USA). Results represent the average of at least three independent experiments.

TbPTR1 = target: T1, TbPTR1 (Trypanosoma brucei brucei, UniProt O76290); assay: TbPTR1 indirect (cytochrome c-coupled) enzyme assay; type: biochemical; conditions: for IC50: indirect assay, triplicate, SD within ± 10% of the value
T1 sequence (O76290 1-268): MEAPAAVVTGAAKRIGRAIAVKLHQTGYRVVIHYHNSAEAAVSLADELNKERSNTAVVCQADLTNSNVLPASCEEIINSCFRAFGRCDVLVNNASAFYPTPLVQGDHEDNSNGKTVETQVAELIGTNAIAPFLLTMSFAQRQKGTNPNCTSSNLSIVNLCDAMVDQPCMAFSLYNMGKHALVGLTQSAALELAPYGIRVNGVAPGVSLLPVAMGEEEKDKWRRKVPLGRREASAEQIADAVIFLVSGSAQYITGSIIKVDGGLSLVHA
Procedure: The in vitro assays used in the current study were based on those reported in the literature. As PTR1 enzymes use dihydrobiopterin (H2B) as a substrate and also require NADPH for the reaction, the reduction of H2B to tetrahydrobiopterin by PTR1 is nonenzymatically linked with the reduction of cytochrome c in this assay, which is detected at 550 nm. The formation of cyt c Fe^2+ results in an increase in the photometric readout. TbPTR1 and LmPTR1 activity was assayed in a buffer containing 20 mM sodium citrate (pH 6.0). The final reaction mixture contained the test compound at a range of concentrations and TbPTR1/LmPTR1 (6.0 nM/12 nM), H2B (0.3 μM/3 μM), cytochrome c (100 μM/100 μM), and NADPH (500 μM/500 μM). The final assay volume was 50 μL in 384-well clear plates (Greiner Bio-One, 781101). Compound screening was performed by the addition of the compound to the assay plates (in 100% DMSO), followed by the addition of 45 μL Reaction Mix (enzyme, H2B cytochrome c in 20 mM sodium citrate buffer). A pre-read was made at 550 nm using an EnVision Multilabel Reader 2103 (PerkinElmer Inc., US), followed by incubation of the assay plates at 30 °C for 10 min. The reaction was initiated by the addition of 5 μL of NADPH (5 mM in ultrapure water) followed by kinetically reading the assay plates at 550 nm using the EnVision Multilabel Reader at 10, 20, 30, 40, and 50 min. The slope of each assay well was calculated. The screening data were analyzed using ActivityBase (IDBS), and for outlier elimination in the control wells, the 3-σ method was applied. Based on the slope, the data were normalized to the positive control methotrexate for TbPTR1/LmPTR1 (1 μM/50 μM, yielding 100% inhibition) and negative controls (1% DMSO, yielding 0% inhibition), and % inhibition was calculated for all samples. The measurement at time 0 min was used to flag optically interfering samples. Each compound was tested in triplicate, and the pIC50 value, standard deviation, Hill slope, and minimum and maximum signals for each dose–response curve were obtained using a 4-parameter logistic fit in the XE module of Activity Base (IDBS), as also reported previously. ,

CYP2C9 = target: T2, CYP2C9 (Homo sapiens, UniProt P11712); assay: Cytochrome P450 assay (P450-Glo), isoform 2C9; type: in vitro ADME
T2 construct: purchased Promega; host or cells: baculovirus-infected insect cells
Source text: 3A4. The Promega P450-Glo assay platform was used with microsomal preparations of
cytochrome P450s from baculovirus-infected insect cells. […]

[2] = system: Trypanosoma brucei brucei L427 wild-type (WT) bloodstream forms; assay: Activity against T. brucei (resazurin-based assay); type: cell-based; conditions: Trypanosoma brucei; for inhibition at 10 µM: read-out: T. brucei % cell growth inhibition
Procedure: The parasites were grown in 5 mL T25 ventilated flasks containing complete HMI-9 medium. The medium was supplemented with 10% heat-inactivated FBS and 100 IU/mL penicillin/streptomycin. To maintain the cultures, subpassages were performed every 2 days at a concentration of 1 × 10^4 cells/mL.
The efficacy of the compounds against Trypanosoma brucei brucei L427 wild-type (WT) bloodstream forms was assessed using a resazurin-based assay as described elsewhere. T. b. brucei L427 bloodstream forms were prepared at a cell density of 5 × 10^3 cells/mL in supplemented complete medium. Serial dilutions of the test compounds were prepared in a final volume of 100 μL, and 100 μL of the parasite suspension was added to each well containing the compound dilutions, resulting in a total volume of 200 μL per well. A dose–response curve for pentamidine was included as a quality control in each assay, and each condition was tested in duplicate. The plates were incubated for 72 h under the specified conditions for the parasite. After the incubation period, 20 μL of a 0.5 mM resazurin solution was added to each well, and the plates were incubated for an additional 4 h under the same conditions. Fluorescence was measured at an excitation wavelength of 544 nm and an emission wavelength of 590 nm using a Synergy 2 Multi-Mode Reader (Biotek, Winooski, VT, USA). The results were expressed as the percentage of parasite growth inhibition compared to the control (untreated parasites) and represented the average of at least three independent experiments.

[3] = at 10 μM, intracellular amastigotes
[4] = read-out: 95% confidence interval for EC50 (T. brucei)
[5] = read-out: T. brucei EC50 (converted)

T2 sequence (P11712 whole entry, canonical isoform): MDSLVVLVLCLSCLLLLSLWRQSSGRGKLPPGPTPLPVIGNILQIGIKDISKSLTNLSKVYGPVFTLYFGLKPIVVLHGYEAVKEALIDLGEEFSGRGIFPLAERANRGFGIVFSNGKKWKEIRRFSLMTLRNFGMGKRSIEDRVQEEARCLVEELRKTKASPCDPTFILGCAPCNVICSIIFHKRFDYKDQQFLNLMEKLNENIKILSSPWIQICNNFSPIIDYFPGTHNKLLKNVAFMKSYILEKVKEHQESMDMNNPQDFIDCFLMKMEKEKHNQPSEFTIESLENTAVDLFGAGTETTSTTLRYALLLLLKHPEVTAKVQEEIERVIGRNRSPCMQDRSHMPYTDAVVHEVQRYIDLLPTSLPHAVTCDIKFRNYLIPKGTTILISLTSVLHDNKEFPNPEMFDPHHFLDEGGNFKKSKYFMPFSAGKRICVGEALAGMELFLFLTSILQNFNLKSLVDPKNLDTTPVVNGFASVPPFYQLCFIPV

Row | Compound | inhibition at 10 µM [1, 3] | IC50 (TbPTR1) | inhibition at 10 µM ([2]; at 10 μM) | IC50 (CYP2C9; read-out: CYP 2C9 IC50) | also measured
1 | Nc1nc2ccc(C(=O)NCCc3ccc(Cl)c(Cl)c3)cc2s1 [Compound 1a, 2-amino-N-(3,4-dichlorophenethyl)benzo[d]thiazole-6-carboxamide] | < 0% | 7.6 µM | 100% | – | L. infantum % cell growth inhibition [1, 3]: inactive; CYP 2C9 IC50 (CYP2C9): max; EC50 [2, 4]: 2.83 to 3.37 µM; EC50 [2, 5]: 3.1 µM
2 | Nc1nc2ccc(C(=O)N(CCc3ccc(Cl)c(Cl)c3)C3CC3)cc2s1 [Compound 1b, 2-amino-N-cyclopropyl-N-(3,4-dichlorophenethyl)benzo[d]thiazole-6-carboxamide] | ~50% | 17.1 µM | 97% | 5 µM | L. infantum % cell growth inhibition [1, 3]: 46±13%; EC50 [2, 4]: 4.45 to 5.88 µM; EC50 [2, 5]: 5 µM
3 | Nc1nc2ccc(C(=O)N(Cc3ccc(Cl)c(Cl)c3)C3CC3)cc2s1 [Compound 1c, 2-amino-N-cyclopropyl-N-(3,4-dichlorobenzyl)benzo[d]thiazole-6-carboxamide] | 24 ± 3% | 71.6 µM | 18 ± 8% | 48.3 µM | –
4 | Nc1nc2ccc(CN(Cc3ccc(Cl)c(Cl)c3)C3CC3)cc2s1 [Compound 1d, 6-((cyclopropyl(3,4-dichlorobenzyl)amino)methyl)benzo[_d_]thiazol-2-amine] | < 0% | 3.3 µM | 59 ± 2% | 8.8 µM | –
5 | Nc1nc2ccc(C(=O)N(CCc3ccc(Cl)c(Cl)c3)c3ccccc3)cc2s1 [Compound 1e, 2-amino-N-(3,4-dichlorophenethyl)-N-phenylbenzo[d]thiazole-6-carboxamide] | < 0% | – | 31% | – | inhibition at 50 µM (TbPTR1; at 50 μM): 18 ± 1%; activity at 10 µM (CYP2C9; human, at 10 µM compound concentration, read-out: CYP 2C9 % residual activity): 35.3%
6 | Nc1nc2ccc(C(=O)NCCc3ccccc3)cc2s1 [Compound 2a, 2-amino-N-phenethylbenzo[d]thiazole-6-carboxamide] | < 0% | 14.5 µM | 27% | 37.7 µM | –
7 | Nc1nc2ccc(C(=O)NCCc3cccc(Cl)c3)cc2s1 [Compound 2b, 2-amino-N-(3-chlorophenethyl)benzo[d]thiazole-6-carboxamide] | – | 3.9 µM | – | – | inhibition at 10 µM [1]: < 0%; IC50 (CYP2C9): 35.2 µM; inhibition at 10 µM [2]: 51%
8 | Nc1nc2ccc(C(=O)NCCc3ccc(Cl)cc3)cc2s1 [Compound 2c, 2-amino-N-(4-chlorophenethyl)benzo[d]thiazole-6-carboxamide] | < 0% | 4.8 µM | 27% | 9.6 µM | –
9 | Nc1nc2ccc(C(=O)NCCc3cccc(Br)c3)cc2s1 [Compound 2d, 2-amino-N-(3-bromophenethyl)benzo[d]thiazole-6-carboxamide] | < 0% | 2.4 µM | 39 ± 5% | 74.5 µM | –
10 | Nc1nc2ccc(C(=O)NCCc3ccc(Br)cc3)cc2s1 [Compound 2e, 2-amino-N-(4-bromophenethyl)benzo[d]thiazole-6-carboxamide] | < 0% | 2.9 µM | 37% | 3.6 µM | –
11 | Nc1nc2ccccc2n1Cc1ccc(Cl)c(Cl)c1 [I, 1-(3,4-dichlorobenzyl)-1H-benzimidazol-2-amine, reference compound] | 29 ± 2% | 0.39 µM | < 0% | 4.2 µM | –
